Twelve molecules from PubChem BioAssay AID328 (DTP/NCI, 2004) can be followed below.

Each structure is given as a SMILES string. “And” between values parts separate entries of the source, which are not always exact repeats. Equal values may be shown once. Inconclusive results and toxic doses are left out.

This assay concerns BDF1 mice, P388 leukemia ip, median survival T/C. The assay can be described thus: NCI In Vivo Anticancer Drug Screen. Data for tumor model P388 Leukemia (intraperitoneal) in B6D2F1 (BDF1) mice. The settings on record: endpoint: median survival time, higher = longer survival. The method in brief:
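Antitumour effect was judged in vivo: survival in drug-treated mice, normalised to that of vehicle-dosed controls, gives the reported T/C.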

Setting [1] is: dose: 100.0 mg/kg/injection, schedule: Q04DX003 (ip), vehicle: saline with Tween-80.
Setting [2] is: dose: 200.0 mg/kg/injection, schedule: Q04DX003 (ip), vehicle: saline with Tween-80.
Setting [3] is: dose: 400.0 mg/kg/injection, schedule: Q04DX003 (ip), vehicle: saline with Tween-80.
Where [4] appears, read: dose: 100.0 mg/kg/injection, schedule: Q04DX003 (ip), vehicle: saline.
Setting [5] is: dose: 200.0 mg/kg/injection, schedule: Q04DX003 (ip), vehicle: saline.
[6] abbreviates: dose: 25.0 mg/kg/injection, schedule: Q01DX009 (ip), vehicle: saline with Tween-80.
Where [7] appears, read: dose: 50.0 mg/kg/injection, schedule: Q01DX009 (ip), vehicle: saline with Tween-80.

`CCOC(=O)c1cc(N)c(N2CCCC2)cc1Cl`: the T/C under setting [1] is 100 % of control; the T/C (dose: 133.0 mg/kg/injection, schedule: Q04DX003 (ip), vehicle: saline with Tween-80) was 89 % of control; the T/C under setting [2] is 105 % of control; the T/C (dose: 300.0 mg/kg/injection, schedule: Q04DX003 (ip), vehicle: saline with Tween-80) was 94 % of control; the T/C under setting [3] was 100 % of control.

For the molecule `O=COCC(O)COC=O`, the T/C (dose: 50.0 mg/kg/injection, schedule: Q04DX003 (ip), vehicle: saline) is 103 % of control; the T/C under setting [4] was 112 % of control; the T/C under setting [5] was 112 % of control.

On to `CCCC1CC[N-]CC1.CCCC1CC[N-]CC1.[Cl][Pt+2][Cl]`, for which the T/C was 122 % of control under setting [6]; 96 % of control (dose: 44.0 mg/kg/injection, schedule: Q04DX003 (ip), vehicle: saline); 118 % of control (dose: 50.0 mg/kg/injection, schedule: Q01DX009 (ip), vehicle: Klucel (hydroxypropylcellulose) (HPC)); 116 % of control (dose: 66.0 mg/kg/injection, schedule: Q04DX003 (ip), vehicle: saline); 112 % of control under setting [4]; 100 % of control (dose: 132.0 mg/kg/injection, schedule: Q04DX003 (ip), vehicle: saline with Tween-80). Further, the T/C is, setting by setting: under setting [2], 95 % of control; (dose: 300.0 mg/kg/injection, schedule: Q04DX003 (ip), vehicle: Klucel (hydroxypropylcellulose) (HPC)) 100 % of control.

For the molecule `COc1cc(/C=C/[N+](=O)[O-])c(OC)cc1Br`, the T/C runs as follows: (dose: 3.12 mg/kg/injection, schedule: Q01DX009 (ip), vehicle: saline with Tween-80) 99 % of control; (dose: 6.25 mg/kg/injection, schedule: Q01DX009 (ip), vehicle: saline with Tween-80) 103 % of control; (dose: 12.5 mg/kg/injection, schedule: Q01DX009 (ip), vehicle: saline with Tween-80) 105 % of control; under setting [6], 153 % of control; under setting [7], 94 % of control.

For the molecule `Cn1nc([N+](=O)[O-])sc1=N`, the T/C (dose: 50.0 mg/kg/injection, schedule: Q01DX001 (ip), vehicle: saline sonified) is 105 % of control; the T/C (dose: 100.0 mg/kg/injection, schedule: Q01DX001 (ip), vehicle: saline sonified) is 105 % of control; the T/C (dose: 200.0 mg/kg/injection, schedule: Q01DX001 (ip), vehicle: saline sonified) is 110 % of control.

On to `CN(N)c1cc(=O)n(C)c(=O)n1C`, for which the T/C under setting [4] was 110 % of control; the T/C under setting [5] was 103 % of control; the T/C (dose: 400.0 mg/kg/injection, schedule: Q04DX003 (ip), vehicle: saline) is 101 % of control.

For the molecule `CCCCCC#CC(=O)O`, the T/C reads like this: under setting [7], 99 % of control; (dose: 100.0 mg/kg/injection, schedule: Q01DX009 (ip), vehicle: saline with Tween-80) 100 % of control; (dose: 200.0 mg/kg/injection, schedule: Q01DX009 (ip), vehicle: saline with Tween-80) 90 % of control.

As for `CN(C)c1ccc(NC(=O)Nc2cccc(Cl)c2)cc1`, the T/C is 95 % of control under setting [1], 90 % of control under setting [2] and 95 % of control under setting [3].

With `O=C1CCSC(=O)N1SC(Cl)(Cl)Cl`, the T/C by setting is: (dose: 12.0 mg/kg/injection, schedule: Q01DX009 (ip), vehicle: saline with Tween-80) 120 % of control; under setting [6], 110 % of control; under setting [7], 100 % of control.

For `COc1c2c([n+](C)c3c(OC)cccc13)OC(C(C)C)C2` (stereo unspecified), the T/C runs as follows: (dose: 0.03 mg/kg/injection, schedule: Q01DX009 (ip), vehicle: saline) 109 % of control; (dose: 0.06 mg/kg/injection, schedule: Q01DX009 (ip), vehicle: saline) 104 % of control; (dose: 0.12 mg/kg/injection, schedule: Q01DX009 (ip), vehicle: saline) 109 % of control; (dose: 0.18 mg/kg/injection, schedule: Q04DX003 (ip), vehicle: saline) 100 % of control; (dose: 0.25 mg/kg/injection, schedule: Q01DX009 (ip), vehicle: Klucel (hydroxypropylcellulose) (HPC)) 104 % of control; (dose: 0.25 mg/kg/injection, schedule: Q01DX009 (ip), vehicle: saline) 104 % of control and 120 % of control. Further, the T/C is, setting by setting: (dose: 0.37 mg/kg/injection, schedule: Q04DX003 (ip), vehicle: saline) 118 % of control; (dose: 0.5 mg/kg/injection, schedule: Q01DX009 (ip), vehicle: Klucel (hydroxypropylcellulose) (HPC)) 104 % of control; (dose: 0.5 mg/kg/injection, schedule: Q01DX009 (ip), vehicle: saline) 112 % of control; (dose: 0.75 mg/kg/injection, schedule: Q04DX003 (ip), vehicle: saline) 104 % of control; (dose: 1.0 mg/kg/injection, schedule: Q01DX009 (ip), vehicle: Klucel (hydroxypropylcellulose) (HPC)) 118 % of control; (dose: 1.1 mg/kg/injection, schedule: Q04DX003 (ip), vehicle: saline) 90 % of control. Moreover, the T/C is 100 % of control (dose: 1.7 mg/kg/injection, schedule: Q04DX003 (ip), vehicle: saline); 90 % of control (dose: 2.5 mg/kg/injection, schedule: Q04DX003 (ip), vehicle: saline); 86 % of control (dose: 3.6 mg/kg/injection, schedule: Q04DX003 (ip), vehicle: saline).

On to `CCCCCCCOC(C[N+](=O)[O-])C(Cl)(Cl)Cl` (stereo unspecified), for which the T/C reads like this: (dose: 12.5 mg/kg/injection, schedule: Q01DX009 (ip), vehicle: saline) 120 % of control; (dose: 25.0 mg/kg/injection, schedule: Q01DX009 (ip), vehicle: saline) 120 % of control; (dose: 37.5 mg/kg/injection, schedule: Q04DX003 (ip), vehicle: saline) 100 % of control; (dose: 50.0 mg/kg/injection, schedule: Q01DX009 (ip), vehicle: saline) 120 % of control; (dose: 75.0 mg/kg/injection, schedule: Q04DX003 (ip), vehicle: saline) 95 % of control; (dose: 150.0 mg/kg/injection, schedule: Q04DX003 (ip), vehicle: saline) 95 % of control. Besides, the T/C (dose: 340.0 mg/kg/injection, schedule: Q04DX003 (ip), vehicle: saline) was 90 % of control.

For `CCCC(O)(CCC)CC(=O)OCC`, the T/C was 104 % of control (dose: 100.0 mg/kg/injection, schedule: Q04DX003 (ip), vehicle: saline sonified); 109 % of control (dose: 200.0 mg/kg/injection, schedule: Q04DX003 (ip), vehicle: saline sonified); 113 % of control (dose: 400.0 mg/kg/injection, schedule: Q04DX003 (ip), vehicle: saline sonified).
